Source: patent publication US20120115896A1, “ISOGENIC HUMAN CELL LINES COMPRISING MUTATED CANCER ALLELES AND PROCESS USING THE CELL LINES” (priority 2008, published 2012)
Read-outs that look alike come from different tables or passages of the source.

What was measured:
[1] = test system: hTERT-HME1 DKI cells carrying PIK3CA (H1047R) and EGFR (delE746-A750)
[2] = test system: hTERT-HME1 cells carrying EGFR (delE746-A750) KI
[3] = test system: hTERT-HME1 cells carrying KRAS (G13D) KI
[4] = test system: hTERT-HME1 cells carrying BRAF (V600E) KI
[5] = test system: hTERT-HME1 cells carrying PIK3CA (E545K and H1047R) KI
[6] = test system: hTERT-HME1 cells carrying KRAS (G13D) KI; experiment: Drug assay: cell viability by ATP content (96 h), KI versus parental cells; ΔKI pharmarray analysis
[7] = test system: hTERT-HME1 cells carrying BRAF (V600E) KI; experiment: as above
[8] = test system: hTERT-HME1 DKI cells carrying PIK3CA (H1047R) and EGFR (delE746-A750); experiment: Drug assay: cell viability by ATP content (96 h), DKI versus parental cells; ΔKI pharmarray analysis
[9] = test system: hTERT-HME1 cells carrying EGFR (delE746-A750) KI; experiment: Drug assay: cell viability by ATP content (CellTiter-Glo, 96 h), KI versus parental cells; ΔKI pharmarray analysis
[10] = test system: hTERT-HME1 cells carrying PIK3CA (E545K and H1047R) KI; experiment: Drug assay: cell viability by ATP content (96 h) and Hoechst/propidium iodide staining, KI versus parental cells; ΔKI pharmarray analysis

C[C@]12CC[C@@H]3c4ccc(O)cc4C[C@@H](CCCCCCCCC[S+]([O-])CCCC(F)(F)C(F)(F)F)[C@H]3[C@@H]1CC[C@@H]2O (stereo partly drawn) [Fulvestrant]
0: ΔKI PIK3CA + EGFR ([1]; Log(M) −4.05) | ΔKI PIK3CA + EGFR ([1]; Log(M) −4.52) | ΔKI PIK3CA + EGFR ([1]; Log(M) −5.00)

CO[C@H]1C[C@@H]2CC[C@@H](C)[C@@](O)(O2)C(=O)C(=O)N2CCCC[C@H]2C(=O)O[C@H]([C@H](C)C[C@@H]2CC[C@@H](O)[C@H](OC)C2)CC(=O)[C@H](C)/C=C(\C)[C@@H](O)[C@@H](OC)C(=O)[C@H](C)C[C@H](C)/C=C/C=C/C=C/1C [rapamycin, Rapamycin]
0.66: ΔKI PIK3CA + EGFR ([1]; Log(M) −9.40)
1.22: ΔKI PIK3CA + EGFR ([1]; Log(M) −5.40)
1.6: ΔKI PIK3CA + EGFR ([1]; Log(M) −7.40)
0: ΔKI PIK3CA + EGFR ([1]; Log(M) −6.40) | ΔKI PIK3CA + EGFR ([1]; Log(M) −8.40) | ΔKI PIK3CA + EGFR ([1]; Log(M) −10.40)

O=C1C[C@@H](c2ccc(O)cc2)Oc2cc(O)cc(O)c21 [Naringenin]
0: ΔKI EGFR ([2]; Log(M) −3.05) | ΔKI EGFR ([2]; Log(M) −3.52) | ΔKI EGFR ([2]; Log(M) −4.00) | ΔKI KRAS ([3]; Log(M) −3.05) | ΔKI KRAS ([3]; Log(M) −3.52) | ΔKI KRAS ([3]; Log(M) −4.00) | ΔKI BRAF ([4]; Log(M) −3.52) | ΔKI PIK3CA ([5]; Log(M) −3.05) | ΔKI PIK3CA ([5]; Log(M) −3.52) | ΔKI PIK3CA ([5]; Log(M) −4.00) | ΔKI PIK3CA + EGFR ([1]; Log(M) −3.05) | ΔKI PIK3CA + EGFR ([1]; Log(M) −3.52) | ΔKI PIK3CA + EGFR ([1]; Log(M) −4.00)
−1.5: ΔKI BRAF ([4]; Log(M) −4.00)
−0.08: ΔKI BRAF ([4]; Log(M) −3.05)

CCN(CC)CCNC(=O)c1cc(Cl)c(N)cc1OC [Metoclopramide]
−4.48: ΔKI BRAF ([4]; Log(M) −3.10)
0.2: ΔKI PIK3CA + EGFR ([1]; Log(M) −3.70)
−0.66: ΔKI BRAF ([4]; Log(M) −3.70)
2.8: ΔKI PIK3CA + EGFR ([1]; Log(M) −3.10)
0: ΔKI EGFR ([2]; Log(M) −3.10) | ΔKI EGFR ([2]; Log(M) −3.57) | ΔKI EGFR ([2]; Log(M) −3.70) | ΔKI EGFR ([2]; Log(M) −3.82) | ΔKI EGFR ([2]; Log(M) −4.05) | ΔKI EGFR ([2]; Log(M) −4.30) | ΔKI EGFR ([2]; Log(M) −4.52) | ΔKI KRAS ([3]; Log(M) −3.10) | ΔKI KRAS ([3]; Log(M) −3.35) | ΔKI KRAS ([3]; Log(M) −3.57) | ΔKI KRAS ([3]; Log(M) −3.70) | ΔKI KRAS ([3]; Log(M) −3.82) | ΔKI KRAS ([3]; Log(M) −4.05) | ΔKI KRAS ([3]; Log(M) −4.30) | ΔKI KRAS ([3]; Log(M) −4.52) | ΔKI BRAF ([4]; Log(M) −3.35) | ΔKI BRAF ([4]; Log(M) −3.57) | ΔKI BRAF ([4]; Log(M) −3.82) | ΔKI BRAF ([4]; Log(M) −4.05) | ΔKI BRAF ([4]; Log(M) −4.30) | ΔKI BRAF ([4]; Log(M) −4.52) | ΔKI PIK3CA ([5]; Log(M) −3.10) | ΔKI PIK3CA ([5]; Log(M) −3.35) | ΔKI PIK3CA ([5]; Log(M) −3.57) | ΔKI PIK3CA ([5]; Log(M) −3.70) | ΔKI PIK3CA ([5]; Log(M) −3.82) | ΔKI PIK3CA ([5]; Log(M) −4.05) | ΔKI PIK3CA ([5]; Log(M) −4.30) | ΔKI PIK3CA ([5]; Log(M) −4.52) | ΔKI PIK3CA + EGFR ([1]; Log(M) −3.35) | ΔKI PIK3CA + EGFR ([1]; Log(M) −3.57) | ΔKI PIK3CA + EGFR ([1]; Log(M) −3.82) | ΔKI PIK3CA + EGFR ([1]; Log(M) −4.05) | ΔKI PIK3CA + EGFR ([1]; Log(M) −4.30) | ΔKI PIK3CA + EGFR ([1]; Log(M) −4.52)
9.94: ΔKI EGFR ([2]; Log(M) −3.35)

COc1cc(O)c2c(c1)O[C@H](c1ccc(O)cc1)CC2=O [Sakuranetin]
0.78: ΔKI EGFR ([2]; Log(M) −3.52)
0.02: ΔKI EGFR ([2]; Log(M) −3.05) | ΔKI BRAF ([4]; Log(M) −3.05)
2.4: ΔKI PIK3CA ([5]; Log(M) −3.52)
2.24: ΔKI BRAF ([4]; Log(M) −3.52)
0.04: ΔKI PIK3CA + EGFR ([1]; Log(M) −3.05)
1.46: ΔKI PIK3CA + EGFR ([1]; Log(M) −3.52)
0: ΔKI KRAS ([3]; Log(M) −3.05) | ΔKI KRAS ([3]; Log(M) −3.52) | ΔKI PIK3CA ([5]; Log(M) −3.05)

Erybraedin C
0: ΔKI KRAS [6] | ΔKI KRAS ([6]; Log(M) −4.70) | ΔKI BRAF [7] | ΔKI BRAF ([7]; Log(M) −4.70) | ΔKI EGFR [9] | ΔKI EGFR ([9]; Log(M) −4.70) | ΔKI PIK3CA [10] | ΔKI PIK3CA ([10]; Log(M) −4.70)
0.38: ΔKI PIK3CA + EGFR ([8]; Log(M) −4.70)

CCCn1c(C)c(C(=O)c2cccc3ccccc23)c2ccccc21 [JWH-015]
0: ΔKI KRAS [6] | ΔKI KRAS ([6]; Log(M) −3.55) | ΔKI BRAF [7] | ΔKI BRAF ([7]; Log(M) −3.55) | ΔKI PIK3CA + EGFR [8] | ΔKI PIK3CA + EGFR ([8]; Log(M) −3.55) | ΔKI EGFR [9] | ΔKI EGFR ([9]; Log(M) −3.55) | ΔKI PIK3CA [10] | ΔKI PIK3CA ([10]; Log(M) −3.55)

CC(C)c1c(C(=O)Nc2ccccc2)c(-c2ccccc2)c(-c2ccc(F)cc2)n1CC[C@@H](O)C[C@@H](O)CC(=O)[O-].CC(C)c1c(C(=O)Nc2ccccc2)c(-c2ccccc2)c(-c2ccc(F)cc2)n1CC[C@@H](O)C[C@@H](O)CC(=O)[O-].[Ca+2] [Atorvastatin Ca]
0: ΔKI KRAS ([6]; Log(M) −5.25) | ΔKI KRAS ([6]; Log(M) −5.85) | ΔKI KRAS ([6]; Log(M) −6.46) | ΔKI BRAF ([7]; Log(M) −5.25) | ΔKI BRAF ([7]; Log(M) −6.46) | ΔKI PIK3CA + EGFR ([8]; Log(M) −5.25) | ΔKI PIK3CA + EGFR ([8]; Log(M) −5.85) | ΔKI PIK3CA + EGFR ([8]; Log(M) −6.46) | ΔKI EGFR ([9]; Log(M) −5.25) | ΔKI EGFR ([9]; Log(M) −5.85) | ΔKI EGFR ([9]; Log(M) −6.46) | ΔKI PIK3CA ([10]; Log(M) −5.25) | ΔKI PIK3CA ([10]; Log(M) −6.46)
−2.6: ΔKI BRAF ([7]; Log(M) −5.85)
9.44: ΔKI PIK3CA ([10]; Log(M) −5.85)
